Key:
BRAF (wt) = BRAF (wt) (Homo sapiens, UniProt P15056); assay: KD BRAF (wt) (Table 1); type: binding
BRAF (V600E) = BRAF (V600E) (Homo sapiens, UniProt P15056, V600E); assay: KD BRAF (V600E) (Table 1); type: binding
[1] = tested on: P-ERK (ERK phospho-T202/Y204) in A375 cells expressing V600E mutated BRAF; assay: HTRF assay for P-ERK determination in A375 cells (BRAF inhibition); type: cell-based; conditions: Homo sapiens, A-375, P-ERK level, drug incubation 1 hour, DMSO = 100%, 10 μM Dabrafenib = 0%
Summary of the method: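 A375 cells (8000/well) in DMEM with 10% FBS, plated overnight at 37 °C, then treated with compound at 0.001-10 μM final for 1 h. After lysis, ERK phospho-T202/Y204 was read by HTRF (665/620 nm ratio, blank-subtracted). Normalised to DMSO (100%) and 10 μM dabrafenib (0%); IC50 from sigmoidal fit.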

[2] = tested on: P-ERK (ERK phospho-T202/Y204) in HCT116 cells expressing WT BRAF; assay: HTRF assay for P-ERK determination in HCT116 cells (BRAF activation); type: cell-based; conditions: Homo sapiens, HCT-116, drug incubation 1 hour, concentration giving 50% of the maximum activation achieved by Dabrafenib
Summary of the method: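 HCT116 cells (WT BRAF) were treated for 1 h at 37 °C in duplicate with compounds from 10 μM to 0.001 μM, then lysed. Phospho-ERK (T202/Y204) was read by HTRF at 665/620 nm. EC50 was taken from sigmoidal or bell-shaped fits, with DMSO set as 0% and the maximal dabrafenib signal as 100%.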

BRAF (wt), sequence (P15056 whole entry): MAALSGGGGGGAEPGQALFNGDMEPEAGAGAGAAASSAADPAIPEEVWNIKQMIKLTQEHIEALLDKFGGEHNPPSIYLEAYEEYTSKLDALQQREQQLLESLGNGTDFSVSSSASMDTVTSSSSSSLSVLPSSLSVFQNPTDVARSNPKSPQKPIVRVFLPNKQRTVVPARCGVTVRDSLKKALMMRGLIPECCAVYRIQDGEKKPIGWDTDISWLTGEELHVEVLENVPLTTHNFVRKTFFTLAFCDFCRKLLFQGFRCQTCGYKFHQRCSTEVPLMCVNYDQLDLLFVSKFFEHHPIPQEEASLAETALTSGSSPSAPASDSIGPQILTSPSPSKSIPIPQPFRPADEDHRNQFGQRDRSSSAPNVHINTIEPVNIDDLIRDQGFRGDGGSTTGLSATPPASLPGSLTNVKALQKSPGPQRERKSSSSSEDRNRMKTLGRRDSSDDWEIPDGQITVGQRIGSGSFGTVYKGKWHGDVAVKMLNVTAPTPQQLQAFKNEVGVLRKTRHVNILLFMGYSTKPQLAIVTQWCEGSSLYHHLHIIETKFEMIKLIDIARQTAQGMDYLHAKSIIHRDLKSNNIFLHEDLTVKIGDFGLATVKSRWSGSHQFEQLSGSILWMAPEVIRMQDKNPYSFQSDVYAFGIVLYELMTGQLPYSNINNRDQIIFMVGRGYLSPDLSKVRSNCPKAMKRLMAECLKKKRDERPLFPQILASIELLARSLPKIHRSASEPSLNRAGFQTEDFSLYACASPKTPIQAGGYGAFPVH
BRAF (V600E), sequence (P15056 whole entry V600E): as the sequence (P15056 whole entry) above, with V600E counted along it

Kd (BRAF (wt)) [µM]	Kd (BRAF (V600E)) [µM]	IC50 [1] [µM]	EC50 [2] [µM]	Structure (SMILES)
0.00341	0.00834	0.814	≥ 10	CN(CCNC(=O)CCCn1cnc2ccc(Nc3cccc(NS(=O)(=O)N4CC[C@@H](F)C4)c3C#N)cc2c1=O)C(=O)OC(C)(C)C [Example 45, tert-butyl N-[2-[4-[6-[2-cyano-3-[[(3R)-3-fluoropyrrolidin-1-yl]sulfonylamino]anilino]-4-oxo-quinazolin-3-yl]butanoylamino]ethyl]-N-methyl-carbamate]
0.0212	0.0735	0.0206	2.54	CC(C)(C)OC(=O)N1CCC(CCn2cnc3ccc(Nc4cccc(NS(=O)(=O)N5CCCC5)c4C#N)cc3c2=O)CC1 [Example 46, tert-butyl 4-[2-[6-[2-cyano-3-(pyrrolidin-1-ylsulfonylamino)anilino]-4-oxo-quinazolin-3-yl]ethyl]piperidine-1-carboxylate]

Reference: US12570615B2, “Quinazolinone derivatives” (Hoffmann-La Roche Inc., priority 2021, dated 2026)
